Laboratory results: US20080051454A1, “Compositions and methods for transient receptor potential vanilloid (TRPV) channel mediated treatments” (The Board of Trustees Operating Michigan State University, priority 2006, published 2008)
Values joined by “and” are separate entries in the source; they are usually repeats but may differ in a detail not shown here. Equal values may be shown once.

Columns and labels:
[1] = system: Wistar rats fed a NS or HS diet for 10 days; assay: Plasma CGRP levels after NADA injection (radioimmunoassay); assay type: in vivo, rat; conditions: NADA 4 mg/kg
Method: Eight minutes after injection, when the depressor phase approached to the lowest point, the rats were sacrificed for collection of blood for plasma CGRP assay.
(§1) This antibody has 100% cross-reactivity with rat a-CGRP and 79% with β-CGRP. There is no cross-reactivity with rat amylin, calcitonin, somatostatin, or substance P. The assay was performed following the manufacturer's protocol.

mesenteric arteries [2] = assay: NADA-induced CGRP release from isolated mesenteric arteries (radioimmunoassay); parameters: species or system rat
Method: After an 1 h stabilization period, the arteries were transferred to another chamber containing 1 ml of Krebs's solution with the addition of 0.05% BSA and drugs including NADA (1 or 10 μM) or CAPZ (10 μM). The tissues were removed after 20 min incubation, and the solutions were collected and evaporated. […] At the end of the experiment, the tissues were blotted and weighted. […] The results are expressed as pg of milligram of tissues.
as §1

[3] = system: Wistar rats fed a normal-salt (NS) or high-salt (HS) diet for 10 days; assay: MAP and HR responses to i.v. bolus NADA with or without antagonists in conscious rats; assay type: in vivo, rat; conditions: for decrease in mean arterial pressure (depressor effect): NADA iv (1, 4, 10 mg/kg; dose of this value not stated); for prolonged depressor effect of NADA (decrease in MAP) after antagonist: NADA 4 mg/kg after CAPZ 3 mg/kg, CGRP8-37 infusion or SR141716A 3 mg/kg
Description: In brief: Wistar rats were fed a normal (NS, 0.4%) or high (HS, 4%) sodium diet for 10 days, then artery and vein were cannulated for measurement of mean arterial pressure (MAP) or for injection of drugs and collection of plasma.
Animal Preparation: Male Wistar rats (7 weeks old, Charles River Laboratory, Wilmington, Mass.) were housed in the animal facility for 1 week before the experiment. Rats were grouped randomly and pair-fed a NS (0.4% of Na^+ by weight) or HS (4% of Na^+ by weight) diet for 10 days. The rat chow was purchased from Harlan Teklad Diets (Madison, Wis.). Drinking water was available ad libitum throughout the experiment. All protocols were in accordance with the National Institutes of Health Guidelines for the Care and Use of Laboratory Animals.
Surgical Preparation Rats were anesthetized with ketamine and xylazine (80 and 4 mg/kg intraperitoneally, respectively) for cannulation or with urethane (1.5 g/kg intraperitoneally) for capsaicin administration. The left jugular vein, carotid and femoral artery were cannulated under anesthesia for injection of drugs or monitoring of mean arterial pressure (MAP) and heart rate (HR).
Three hours after surgery, baseline MAP and its response to the above-mentioned drugs were obtained with the rats fully awake and unrestrained [Wang et al., Am J Physiol 2004; 287:H1868-H[874]. NADA was injected in increasing doses (1, 4, and 10 mg/kg intravenous bolus) in 3 subgroups of rats (each group for each dose). To determine the role of TRPV1 and CB 1 receptor in NADA-induced hypotension, NADA (4 mg/kg) was injected 10 minutes or 20 minutes after intravenous injection of CAPZ (3 mg/kg) or SR141716A (3 mg/kg), respectively.
To examine the effect of CGRP8-37 on NADA-induced hypotension, CGRP8-37 was intravenously administered at the rate of 1 mg/kg/min for 2 minutes followed by injection at the rate of 0.5 mg/kg/min for 15 minutes. NADA (4 mg/kg) was injected 1 minute after CGRPs-37 administration. The effectiveness of the dose and time frame for CGRP8-37 injection was verified by blockade of the hypotensive response to capsaicin (30 μg/kg) (n=5).

male Wistar rats [4] = assay: Depressor effect of 20-HETE analog DSR given IV, with or without antagonists; assay type: in vivo, rat
male Wistar rats [5] = assay: Plasma CGRP and substance P after i.v. DSR (radioimmunoassay); assay type: in vivo, rat; conditions: after DSR 1 mg/kg iv
[6] = system: high-salt plus capsaicin pretreated rats; conditions: rat, in vivo; cited from earlier work
mesenteric arteries [7] = assay: MethA-induced CGRP release from isolated mesenteric arteries (radioimmunoassay); parameters: species or system rat; conditions: arteries of NS-treated rats
Method: The arteries were dissected free of fat and connective tissues.
The preparations were incubated in a Krebs' solution of the following compositions (in mM): NaCl 119, NaHCO3 25, KH2PO4 1.2, MgSO4 1.5, CaCl2 2.5, KCl 4.7, and D-glucose 11. The Krebs' solution was maintained at 37 °C and gassed with 95% O2 and 5% CO2. After 1 h stabilization period, the arteries were transferred to another chamber containing 1 ml of Krebs' solution with the addition of 0.05% BSA and drugs. […] The tissues were removed after 20 min incubation, and the solutions were collected. At the end of the experiment, the tissues were blotted and weighted.
(§2) This antibody has 100% cross-reactivity with rat α-CGRP and 79% with rat β-CGRP. There is no cross-reactivity with rat amylin, calcitonin, somatostatin, or substance P.

[8] = system: Wistar rats fed a NS or HS diet for 3 weeks; assay: Plasma CGRP levels after MethA injection (radioimmunoassay); assay type: in vivo, rat; conditions: MethA 5 mg/kg
Description: Fifteen minutes after injection, when the prolonged depressor phase approached to the lowest point, the rats were decapitated for collection of blood for plasma CGRP assay.
as §2

Wistar rats fed HS diet = assay: Blood pressure after i.v. SR141716A or CAPZ in conscious rats fed HS diet (Example I); assay type: in vivo, rat; conditions: 3 mg/kg iv
Method: Experiments were approved by the Institutional Animals Care and Use Committee. Experiments were performed using male Wistar rats (Charles River Laboratory, Wilmington, Mass.). Rats (6 weeks old) were housed in the animal facility for 1 week before the experiments. Rats were then randomly assigned to a normal-sodium (NS) diet (0.4% of Na+ by weight, Harlan Teklad) or HS (4% of Na+ by weight; Harlan Teklad) for 3 weeks. Rats drank water ad libitum throughout the experiment.
Surgical Preparation and MAP measurements: The rats were anesthetized with ketamine and xylazine (80 and 4 mg/kg intraperitoneally, respectively) for implantation of vascular catheters or with urethane ([…] intraperitoneally) throughout protocol 2. […]
Protocol 1: Rats fed a NS or HS diet were randomly assigned to 5 groups for intravenous injection of vehicle or MethA alone or in combination with SR141716A (a CB1 receptor antagonist), CAPZ (a VR1 receptor antagonist), or the combination of the 2 (n=5 to 8). Baseline MAP and its response to the aforementioned drugs were determined 3 hours after surgery when animals were fully awake and unrestrained as described previously. […]

## CCCCC/C=C\C/C=C\C/C=C\C/C=C\CCCC(=O)NCCc1ccc(O)c(O)c1 [NADA, N-arachidonoyl dopamine]
[1]; HS
  plasma CGRP levels: 84.2 ± 7.2 pg/mL and 87.7 ± 5.6 pg/mL
[1]; NS
  plasma CGRP levels: 55.3 ± 4.6 pg/mL and 60.6 ± 5.1 pg/mL
Mesenteric arteries [2]; NADA 1 μM, arteries of HS-treated rats
  CGRP release: 9.16±0.68 pg/mg tissue
Mesenteric arteries [2]; NADA 1 μM, arteries of NS-treated rats
  CGRP release: 6.43±0.58 pg/mg tissue
Mesenteric arteries [2]; NADA 10 μM, arteries of HS-treated rats
  CGRP release: 19.00±1.56 pg/mg tissue
Mesenteric arteries [2]; NADA 10 μM, arteries of NS-treated rats
  CGRP release: 13.07±0.91 pg/mg tissue
[3]; NADA 1 mg/kg iv, HS diet
  peak decrease in MAP: 6±2 mmHg
[3]; NADA 1 mg/kg iv, NS diet
  peak decrease in MAP: 7±3 mmHg
[3]; NADA 4 mg/kg iv, HS diet
  peak decrease in MAP: 22±3 mmHg
[3]; NADA 4 mg/kg iv, NS diet
  peak decrease in MAP: 14±2 mmHg
[3]; NADA 10 mg/kg iv, HS diet
  peak decrease in MAP: 33±5 mmHg
[3]; NADA 10 mg/kg iv, NS diet
  peak decrease in MAP: 24±4 mmHg
[3]; HS diet
  decrease in mean arterial pressure (depressor effect): 16±3 mmHg
[3]; NS diet
  decrease in mean arterial pressure (depressor effect): 8±2 mmHg
[3]; after NADA iv
  HR during depressor effect: pronounced increase
  duration of prolonged depressor activity: approximately 20 minutes
  time of peak of prolonged depressor activity after administration: 7 to 9 min

## O=C(O)CCC/C=C\CCCCCCC/C=C\CCCCO [DSR]
Male Wistar rats [4]; DSR 1 mg/kg IV alone
  decrease in mean arterial pressure: 22.1±2.3 mmHg
Male Wistar rats [4]; rat, in vivo
  depressor effect among the analogs tested in vivo: most potent
Male Wistar rats [5]
  plasma CGRP levels: 273.4 ± 23.6 pg/mL
  plasma SP levels: 14.5 ± 1.6 pg/mL

## CCCCc1nc(Cl)c(CO)n1Cc1ccc(-c2ccccc2-c2nn[nH]n2)cc1 [losartan]
[6]
  effect on the impaired natriuretic response: unable to prevent
  prevention of the development of salt-induced hypertension: prevented

## CCCCC/C=C\C/C=C\C/C=C\C/C=C\CCCC(=O)N[C@H](C)CO [MethA, methanandamide]
Mesenteric arteries [7]; MethA 0.1 μM
  CGRP release: 4.81±0.75 pg/mg tissue
Mesenteric arteries [7]; MethA 10 μM
  CGRP release: 14.89±2.36 pg/mg tissue
[8]; HS
  plasma CGRP levels: 78.1 ± 8.5 pg/mL
[8]; NS
  plasma CGRP levels: 50.4 ± 5.9 pg/mL

## Cc1c(C(=O)NN2CCCCC2)nn(-c2ccc(Cl)cc2Cl)c1-c1ccc(Cl)cc1 [SR141716A]
Wistar rats fed HS diet
  duration of transient elevation in blood pressure after injection: no more than 15 minutes
[3]; HS diet
  prolonged depressor effect of NADA (decrease in MAP) after antagonist: 19±4 mmHg
[3]; NS diet
  prolonged depressor effect of NADA (decrease in MAP) after antagonist: 12±3 mmHg
[3]; NADA 4 mg/kg, NS and HS
  effect on initial transient hypotensive and brief pressor phases of NADA: did not affect
